Laboratory results taken from ChEMBL document CHEMBL3608277 (ACS Med Chem Lett, 2015).
Calls of active or inactive are those of the source. The calls are words filed in the database; no cut-off is given here.

How the values were obtained:
[1] = Toxicity against human HeLa67 cells; assay type: cell-based
[2] = biological target: C-X-C chemokine receptor type 4 (Homo sapiens) (UniProt P61073); assay: Inhibition of CXCR4 in human Jurkat cells assessed as reduction in HIV-Nef-M1-induced mitochondrial membrane depolarization at 0.01 to 100 uM by JC1 dye based fluorescence depolarization assay; assay type: cell-based
Chain of C-X-C chemokine receptor type 4 (Homo sapiens) (P61073 whole entry): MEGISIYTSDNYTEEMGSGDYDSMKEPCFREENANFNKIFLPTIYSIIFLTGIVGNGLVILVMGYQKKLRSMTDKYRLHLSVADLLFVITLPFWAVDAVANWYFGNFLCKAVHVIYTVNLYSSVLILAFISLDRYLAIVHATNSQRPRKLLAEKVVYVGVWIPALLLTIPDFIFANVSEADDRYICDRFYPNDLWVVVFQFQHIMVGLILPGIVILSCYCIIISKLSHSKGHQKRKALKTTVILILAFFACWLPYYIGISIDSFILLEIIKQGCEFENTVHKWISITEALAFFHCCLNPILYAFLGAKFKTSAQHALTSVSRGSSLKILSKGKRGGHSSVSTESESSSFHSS

[3] = test system: Human immunodeficiency virus 1; assay: Antiviral activity against HIV1 3B infected in CD4/CXCR4 expressing human MAGI cells incubated for 48 hrs by beta-galactosidase reporter gene assay; assay type: functional, organism-based; conditions: Human immunodeficiency virus 1, 3B
[4] = test system: Human immunodeficiency virus 1; assay: Antiviral activity against HIV1 BaL infected in CD4/CCR5 expressing human MAGI cells incubated for 48 hrs by beta-galactosidase reporter gene assay; assay type: functional, organism-based; conditions: Human immunodeficiency virus 1, BaL
[5] = test system: Human immunodeficiency virus 1; assay: Antiviral activity against HIV1 3B infected in CD4/CXCR4 expressing human PBMC cells by reverse transcriptase activity and/or p24 antigen content detection based assay; assay type: functional, organism-based; conditions: Human immunodeficiency virus 1, 3B
[6] = test system: Human immunodeficiency virus 2; assay: Antiviral activity against HIV2 CDC310319 infected in human PBMC cells; assay type: functional, organism-based; conditions: Human immunodeficiency virus 2, CDC310319, PBMC
[7] = Toxicity against human MAGI cells incubated for 48 hrs by MTS assay; assay type: cell-based; conditions: read-out: TC50
[8] = biological target: T1, C-C chemokine receptor type 5 (Homo sapiens, UniProt P51681); assay: Displacement of [125I]-MIP-1beta form CCR5 (unknown origin) at 1 mM
Target sequence in this assay (P51681 whole entry, looked up): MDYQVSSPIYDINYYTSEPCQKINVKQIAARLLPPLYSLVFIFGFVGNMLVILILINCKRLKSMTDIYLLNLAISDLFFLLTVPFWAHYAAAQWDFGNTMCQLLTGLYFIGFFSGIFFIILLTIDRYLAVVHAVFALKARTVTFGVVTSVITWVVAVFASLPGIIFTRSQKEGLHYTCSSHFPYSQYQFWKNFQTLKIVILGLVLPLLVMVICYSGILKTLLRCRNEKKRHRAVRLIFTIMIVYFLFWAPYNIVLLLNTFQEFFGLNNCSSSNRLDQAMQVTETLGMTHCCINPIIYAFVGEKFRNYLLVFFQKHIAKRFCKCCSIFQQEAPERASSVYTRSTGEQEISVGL

[9] = test system: Human immunodeficiency virus; assay: Antiviral activity against NNRTI-resistant HIV containing reverse transcriptase K103N/Y181C mutation; assay type: functional, organism-based; conditions: Human immunodeficiency virus 1
[10] = Toxicity against HEK293 cells derived ACTOne-X4 cells; assay type: cell-based; conditions: human
[11] = Toxicity against human PBMC by MTS assay; assay type: cell-based; conditions: read-out: TC50 (the source's name)
[12] = test system: Human immunodeficiency virus 1; assay: Antiviral activity against HIV1 BaL infected in CD4/CCR5 expressing human PBMC cells by reverse transcriptase activity and/or p24 antigen content detection based assay; assay type: functional, organism-based; conditions: Human immunodeficiency virus 1, BaL
[13] = test system: Human immunodeficiency virus; assay: Antiviral activity against wild type HIV; assay type: functional, organism-based; conditions: Human immunodeficiency virus 1
[14] = biological target: C-X-C chemokine receptor type 4 (Homo sapiens) (UniProt P61073); assay: Displacement of [125I]-SDF1 form CXCR4 (unknown origin) at 1 mM
[15] = Inhibition of HIV pNL4-3 heterodimeric reverse transcriptase p66/p51 incubated at 37 degC for 1 hr by scintillation counting method; set-up: species or system Human immunodeficiency virus
[16] = biological target: T1, C-C chemokine receptor type 5; assay: Displacement of [125I]-MIP-1beta form CCR5 (unknown origin) at 100 uM
Target sequence in this assay (P51681 whole entry, looked up): as above

[17] = test system: Human immunodeficiency virus; assay: Resistance index, ratio of EC50 for […] HIV containing reverse transcriptase K103N/Y181C mutation to EC50 for wild type HIV; assay type: functional
[18] = biological target: T1, C-C chemokine receptor type 5; assay: Displacement of [125I]-MIP-1beta form CCR5 (unknown origin)
Target sequence in this assay (P51681 whole entry): as the sequence (P51681 whole entry, looked up) above

Row | IC50 [3] [µM] | IC50 [4] [µM] | SMILES | other results
1 | – | – | Cc1ccc(-c2ccc3c(c2)C=C(C(=O)Nc2ccc(C[N+](C)(C)C4CCOCC4)cc2)CCC3)cc1.[Cl-] | Activity [1]: Toxic
2 | – | – | Cc1cn([C@H]2C[C@H](N=[N+]=[N-])[C@@H](CO)O2)c(=O)[nH]c1=O | inhibition [2]: inactive
3 | 5.8 | 16 | c1ccc(Cc2cn[nH]c2C2CCN(Cc3cccnc3)CC2)cc1 | –
4 | 6.4 | 13 | CC(C)c1nccc(CN2CCC(c3[nH]ncc3Cc3ccccc3)CC2)n1 | –
5 | 25 | 17 | c1ccc(Cc2cn[nH]c2C2CCN(Cc3ccccn3)CC2)cc1 | –
6 | 105 | 95 | Nc1ncc(N2CCC(c3[nH]ncc3Cc3ccccc3)CC2)cn1 | –
7 | 57 | 66 | CCc1nccc(CN2CCC(c3[nH]ncc3Cc3ccccc3)CC2)n1 | –
8 | – | – | Cc1nnc(C(C)C)n1[C@H]1C[C@H]2CC[C@@H](C1)N2CC[C@H](NC(=O)C1CCC(F)(F)CC1)c1ccccc1 | inhibition [2]: inactive
9 | – | – | O=C1Nc2ccc(Cl)cc2[C@@](C#CC2CC2)(C(F)(F)F)O1 [EFAVIRENZ] | Ratio EC50 [17]: 70
10 | 44 | 64 | c1ccc(-c2cn[nH]c2C2CCN(Cc3cccnc3)CC2)cc1 | –
11 | 13 | 17 | Nc1cc(CN2CCC(c3[nH]ncc3Cc3ccccc3)CC2)ncn1 | –
12 | > 200 | 72 | COc1ncc(CN2CCC(c3[nH]ncc3Cc3ccccc3)CC2)cn1 | IC50 [18]: 70 µM
13 | – | – | c1cc(CN2CCCNCCNCCCNCC2)ccc1CN1CCCNCCNCCCNCC1 | inhibition [2]: Active
14 | 81 | 83 | Nc1ccnc(CN2CCC(c3[nH]ncc3Cc3ccccc3)CC2)n1 | –
15 | 68 | 60 | CCc1cc(CN2CCC(c3[nH]ncc3Cc3ccccc3)CC2)[nH]n1 | –

Row | SMILES | IC50 [3] [µM] | IC50 [4] [µM] | other results
16 | c1ccc(Cc2cn[nH]c2C2CCN(Cc3ccncc3)CC2)cc1 | 0.8 | 3.8 | IC50 [5]: 2.3 µM; IC50 [6]: 31 µM; CC50 at 48 h [7]: > 300 µM; inhibition [8]: 88%; EC50 [9]: 19 µM; CC50 [10]: > 200 µM; CC50 [11]: > 100 µM; IC50 [12]: 2.3 µM; EC50 [13]: 0.9 µM; inhibition [14]: 0%; IC50 [15]: 9 µM; inhibition [16]: 38%
